Where two headings read alike, the source gives them in different places. Marks after values point to notes of the source that are not given here.
Experiments:
Type in all cases: cell-based
[1] = system: microfilariae of Dirofilaria immitis; assay: Dirofilaria immitis, Microfilaria (DiMf) In Vitro Assay; settings: Dirofilaria immitis, 72 h, read-out: DiMf MED, Minimum Effective Dose, D. immitis microfilariae motility, in vitro
D. immitis L4 larvae = assay: Dirofilaria immitis, L4 Stage (DiL4) In Vitro Assay; settings: for minimal effective concentration: Dirofilaria immitis, 72 h, read-out: DiL4 MED, Minimum Effective Dose, D. immitis L4 larvae motility, in vitro; for DiMf/DiL4: larval stage selectivity, ratio of DiMf MED to DiL4 MED
[2] = system: third stage larvae of Haemonchus contortus; assay: Haemonchus contortus, Larvae Stage 3 (HcL3) In Vitro Assay; settings: for minimal effective concentration: Haemonchus contortus, 96 h; for HcL3 MED (symbol after Ex#): approximately 96 hours incubation
[3] = read-out: HcL3 MED, Minimum Effective Dose, H. contortus third stage larvae, approximately 96 hours
[4] = multiple-resistant field isolate

COc1cccc(Cc2ccc(C[C@H]3OC(=O)[C@H](CC(C)C)N(C)C(=O)[C@@H](C)OC(=O)[C@H](CC(C)C)N(C)C(=O)[C@@H](Cc4ccc(Cc5cccc(OC)c5)cc4)OC(=O)[C@H](CC(C)C)N(C)C(=O)[C@@H](C)OC(=O)[C@H](CC(C)C)N(C)C3=O)cc2)c1 [Example 1-5, (3S,6R,9S,12R,15S,18R,21S,24R)-3,9,15,21-tetraisobutyl-6,18-bis(4-(3-methoxybenzyl)benzyl)-4,10,12,16,22,24-hexamethyl-1,7,13,19-tetraoxa-4,10,16,22-tetraazacyclotetracosan-2,5,8,11,14,17,20,23-octaone]
minimal effective concentration [1]: 0.5 µM
minimal effective concentration (D. immitis L4 larvae): 0.001 µM
DiMf/DiL4 (D. immitis L4 larvae): 500
minimal effective concentration [2, 3]: > 100 µM

COc1ccccc1Cc1ccc(C[C@H]2OC(=O)[C@H](CC(C)C)N(C)C(=O)[C@@H](C)OC(=O)[C@H](CC(C)C)N(C)C(=O)[C@@H](Cc3ccc(Cc4ccccc4OC)cc3)OC(=O)[C@H](CC(C)C)N(C)C(=O)[C@@H](C)OC(=O)[C@H](CC(C)C)N(C)C2=O)cc1 [Example 1-11, (3S,6R,9S,12R,15S,18R,21S,24R)-3,9,15,21-tetraisobutyl-6,18-bis(4-(2-methoxybenzyl)benzyl)-4,10,12,16,22,24-hexamethyl-1,7,13,19-tetraoxa-4,10,16,22-tetraazacyclotetracosan-2,5,8,11,14,17,20,23-octaone]
minimal effective concentration [1]: 0.3 µM
minimal effective concentration (D. immitis L4 larvae): 0.001 µM
DiMf/DiL4 (D. immitis L4 larvae): 300
minimal effective concentration [2, 3]: > 10 µM

CC(C)C[C@H]1C(=O)O[C@H](Cc2ccc(C(c3ccc(F)c(F)c3)n3cccn3)cc2)C(=O)N(C)[C@@H](CC(C)C)C(=O)O[C@H](C)C(=O)N(C)[C@@H](CC(C)C)C(=O)O[C@H](Cc2ccc(C(c3ccc(F)c(F)c3)n3cccn3)cc2)C(=O)N(C)[C@@H](CC(C)C)C(=O)O[C@H](C)C(=O)N1C (stereo partly drawn) [Example 1-18, (3S,6R,9S,12R,15S,18R,21S,24R)-6,18-bis(4-((3,4-difluorophenyl)(1H-pyrazol-1-yl)methyl)benzyl)-3,9,15,21-tetraisobutyl-4,10,12,16,22,24-hexamethyl-1,7,13,19-tetraoxa-4,10,16,22-tetraazacyclotetracosan-2,5,8,11,14,17,20,23-octaone]
minimal effective concentration [1]: 0.003 µM
minimal effective concentration (D. immitis L4 larvae): < 0.0001 µM
DiMf/DiL4 (D. immitis L4 larvae): >30
minimal effective concentration [2, 3]: > 100 µM

Cc1cnsc1Cc1ccc(C[C@H]2OC(=O)[C@H](CC(C)C)N(C)C(=O)[C@@H](C)OC(=O)[C@H](CC(C)C)N(C)C(=O)[C@@H](Cc3ccc(Cc4sncc4C)cc3)OC(=O)[C@H](CC(C)C)N(C)C(=O)[C@@H](C)OC(=O)[C@H](CC(C)C)N(C)C2=O)cc1 [Example 3-288, (3S,6R,9S,12R,15S,18R,21S,24R)-3,9,15,21-tetraisobutyl-4,6,10,16,18,22-hexamethyl-12,24-bis(4-((4-methylisothiazol-5-yl)methyl)benzyl)-1,7,13,19-tetraoxa-4,10,16,22-tetraazacyclotetracosan-2,5,8,11,14,17,20,23-octaone]
DiL4 MED (D. immitis L4 larvae; Minimum Effective Dose, D. immitis L4 larvae motility, in vitro, listed as (3-288)): 0.1 nM
DiMf/DiL4 (D. immitis L4 larvae; listed as (3-288)): 30
minimal effective concentration ([2]; read-out: HcL3 MED, Haemonchus contortus third stage larvae in vitro, class mark appended to the Ex # in Table 3): < 1 µM
minimal effective concentration ([2]; read-out: HcL3 MED, approximately 96 hours incubation, multiple-resistant field isolate): ≤ 1 µM
HcL3 MED ([2]; Minimum Effective Dose, H. contortus third stage larvae, approximately 96 hours, listed as (3-288)): 0.2 µM

COc1ncc(Cl)cc1Cc1ccc(C[C@H]2OC(=O)[C@H](CC(C)C)N(C)C(=O)[C@@H](C)OC(=O)[C@H](CC(C)C)N(C)C(=O)[C@@H](Cc3ccc(Cc4cc(Cl)cnc4OC)cc3)OC(=O)[C@H](CC(C)C)N(C)C(=O)[C@@H](C)OC(=O)[C@H](CC(C)C)N(C)C2=O)cc1 [Example 3-332, (3S,6R,9S,12R,15S,18R,21S,24R)-6,18-bis(4-((5-chloro-2-methoxypyridin-3-yl)methyl)benzyl)-3,9,15,21-tetraisobutyl-4,10,12,16,22,24-hexamethyl-1,7,13,19-tetraoxa-4,10,16,22-tetraazacyclotetracosan-2,5,8,11,14,17,20,23-octaone]
minimal effective concentration [1]: 0.3 µM
minimal effective concentration (D. immitis L4 larvae): 0.0005 µM
DiMf/DiL4 (D. immitis L4 larvae): 548

CC(C)C[C@H]1C(=O)O[C@H](Cc2ccc(Cc3ccsn3)cc2)C(=O)N(C)[C@@H](CC(C)C)C(=O)O[C@H](C)C(=O)N(C)[C@@H](CC(C)C)C(=O)O[C@H](Cc2ccccc2)C(=O)N(C)[C@@H](CC(C)C)C(=O)O[C@H](C)C(=O)N1C [Example 4-36]
HcL3 MED (symbol after Ex#) [2, 4]: 4-36^ (Examples with a carrot (^) have HcL3 MED values>1 and ≤3.3 μM)

Cc1cc(Cc2ccc(C[C@H]3OC(=O)[C@H](CC(C)C)N(C)C(=O)[C@@H](C)OC(=O)[C@H](CC(C)C)N(C)C(=O)[C@@H](Cc4ccccc4)OC(=O)[C@H](CC(C)C)N(C)C(=O)[C@@H](C)OC(=O)[C@H](CC(C)C)N(C)C3=O)cc2)n(C)n1 [Example 4-42]
HcL3 MED (symbol after Ex#) [2, 4]: 4-42^ (Examples with a carrot (^) have HcL3 MED values>1 and ≤3.3 μM)

CC(C)C[C@H]1C(=O)O[C@H](Cc2ccc(Cc3cocn3)cc2)C(=O)N(C)[C@@H](CC(C)C)C(=O)O[C@H](C)C(=O)N(C)[C@@H](CC(C)C)C(=O)O[C@H](Cc2ccccc2)C(=O)N(C)[C@@H](CC(C)C)C(=O)O[C@H](C)C(=O)N1C [Example 4-52]
HcL3 MED (symbol after Ex#) [2, 4]: 4-52* (Examples with an asterisk (*) have HcL3 MED values≤1 μM)

Cc1scnc1C(O)c1ccc(C[C@H]2OC(=O)[C@H](CC(C)C)N(C)C(=O)[C@@H](C)OC(=O)[C@H](CC(C)C)N(C)C(=O)[C@@H](Cc3ccccc3)OC(=O)[C@H](CC(C)C)N(C)C(=O)[C@@H](C)OC(=O)[C@H](CC(C)C)N(C)C2=O)cc1 (some centres unmarked) [Example 4-56]
HcL3 MED (symbol after Ex#) [2, 4]: 4-56^ (Examples with a carrot (^) have HcL3 MED values>1 and ≤3.3 μM)

Cc1nc(Cc2ccc(C[C@H]3OC(=O)[C@H](CC(C)C)N(C)C(=O)[C@@H](C)OC(=O)[C@H](CC(C)C)N(C)C(=O)[C@@H](Cc4ccccc4)OC(=O)[C@H](CC(C)C)N(C)C(=O)[C@@H](C)OC(=O)[C@H](CC(C)C)N(C)C3=O)cc2)cs1 [Example 4-66]
HcL3 MED (symbol after Ex#) [2, 4]: 4-66^ (Examples with a carrot (^) have HcL3 MED values>1 and ≤3.3 μM)

CC(C)C[C@H]1C(=O)O[C@H](Cc2ccc(C(O)c3sccc3Cl)cc2)C(=O)N(C)[C@@H](CC(C)C)C(=O)O[C@H](C)C(=O)N(C)[C@@H](CC(C)C)C(=O)O[C@H](Cc2ccccc2)C(=O)N(C)[C@@H](CC(C)C)C(=O)O[C@H](C)C(=O)N1C (some centres unmarked) [Example 4-77]
HcL3 MED (symbol after Ex#) [2, 4]: 4-77^ (Examples with a carrot (^) have HcL3 MED values>1 and ≤3.3 μM)

Cc1nc(Cc2ccc(C[C@H]3OC(=O)[C@H](CC(C)C)N(C)C(=O)[C@@H](C)OC(=O)[C@H](CC(C)C)N(C)C(=O)[C@@H](Cc4ccccc4)OC(=O)[C@H](CC(C)C)N(C)C(=O)[C@@H](C)OC(=O)[C@H](CC(C)C)N(C)C3=O)cc2)co1 [Example 4-83]
HcL3 MED (symbol after Ex#) [2, 4]: 4-83^ (Examples with a carrot (^) have HcL3 MED values>1 and ≤3.3 μM)

Cc1csc(Cc2ccc(C[C@H]3OC(=O)[C@H](CC(C)C)N(C)C(=O)[C@@H](C)OC(=O)[C@H](CC(C)C)N(C)C(=O)[C@@H](Cc4ccccc4)OC(=O)[C@H](CC(C)C)N(C)C(=O)[C@@H](C)OC(=O)[C@H](CC(C)C)N(C)C3=O)cc2)n1 [Example 4-90]
HcL3 MED (symbol after Ex#) [2, 4]: 4-90^ (Examples with a carrot (^) have HcL3 MED values>1 and ≤3.3 μM)

Cc1nc(C)c(Cc2ccc(C[C@H]3OC(=O)[C@H](CC(C)C)N(C)C(=O)[C@@H](C)OC(=O)[C@H](CC(C)C)N(C)C(=O)[C@@H](Cc4ccccc4)OC(=O)[C@H](CC(C)C)N(C)C(=O)[C@@H](C)OC(=O)[C@H](CC(C)C)N(C)C3=O)cc2)o1 [Example 4-91]
HcL3 MED (symbol after Ex#) [2, 4]: 4-91^ (Examples with a carrot (^) have HcL3 MED values>1 and ≤3.3 μM)

Cc1cnc(Cc2ccc(C[C@H]3OC(=O)[C@H](CC(C)C)N(C)C(=O)[C@@H](C)OC(=O)[C@H](CC(C)C)N(C)C(=O)[C@@H](Cc4ccccc4)OC(=O)[C@H](CC(C)C)N(C)C(=O)[C@@H](C)OC(=O)[C@H](CC(C)C)N(C)C3=O)cc2)s1 [Example 4-94]
HcL3 MED (symbol after Ex#) [2, 4]: 4-94^ (Examples with a carrot (^) have HcL3 MED values>1 and ≤3.3 μM)

Cc1ccc(Cc2ccc(C[C@H]3OC(=O)[C@H](CC(C)C)N(C)C(=O)[C@@H](C)OC(=O)[C@H](CC(C)C)N(C)C(=O)[C@@H](Cc4ccccc4)OC(=O)[C@H](CC(C)C)N(C)C(=O)[C@@H](C)OC(=O)[C@H](CC(C)C)N(C)C3=O)cc2)cn1 [Example 4-101]
HcL3 MED (symbol after Ex#) [2, 4]: 4-101^ (Examples with a carrot (^) have HcL3 MED values>1 and ≤3.3 μM)

CC(C)C[C@H]1C(=O)O[C@H](Cc2ccc(Cc3ncc(Cl)s3)cc2)C(=O)N(C)[C@@H](CC(C)C)C(=O)O[C@H](C)C(=O)N(C)[C@@H](CC(C)C)C(=O)O[C@H](Cc2ccccc2)C(=O)N(C)[C@@H](CC(C)C)C(=O)O[C@H](C)C(=O)N1C [Example 4-111]
HcL3 MED (symbol after Ex#) [2, 4]: 4-111^ (Examples with a carrot (^) have HcL3 MED values>1 and ≤3.3 μM)

Cc1nc(Cc2ccc(C[C@H]3OC(=O)[C@H](CC(C)C)N(C)C(=O)[C@@H](C)OC(=O)[C@H](CC(C)C)N(C)C(=O)[C@@H](Cc4ccccc4)OC(=O)[C@H](CC(C)C)N(C)C(=O)[C@@H](C)OC(=O)[C@H](CC(C)C)N(C)C3=O)cc2)sc1C [Example 4-115]
HcL3 MED (symbol after Ex#) [2, 4]: 4-115^ (Examples with a carrot (^) have HcL3 MED values>1 and ≤3.3 μM)

Cc1nnsc1Cc1ccc(C[C@H]2OC(=O)[C@H](CC(C)C)N(C)C(=O)[C@@H](C)OC(=O)[C@H](CC(C)C)N(C)C(=O)[C@@H](Cc3ccccc3)OC(=O)[C@H](CC(C)C)N(C)C(=O)[C@@H](C)OC(=O)[C@H](CC(C)C)N(C)C2=O)cc1 [Example 4-116]
HcL3 MED (symbol after Ex#) [2, 4]: 4-116^ (Examples with a carrot (^) have HcL3 MED values>1 and ≤3.3 μM)

CC(C)C[C@H]1C(=O)O[C@H](Cc2ccc(Cc3cnco3)cc2)C(=O)N(C)[C@@H](CC(C)C)C(=O)O[C@H](C)C(=O)N(C)[C@@H](CC(C)C)C(=O)O[C@H](Cc2ccccc2)C(=O)N(C)[C@@H](CC(C)C)C(=O)O[C@H](C)C(=O)N1C [Example 4-135]
HcL3 MED (symbol after Ex#) [2, 4]: 4-135^ (Examples with a carrot (^) have HcL3 MED values>1 and ≤3.3 μM)
